Results reported in patent publication US20250368640A1 (BIOFRONT LTD, priority 2022, published 2025).
Where two headings read alike, the source gives them in different places.

Assays:
[1] = molecular target: FLT3-ITD (Homo sapiens, UniProt P36888, ITD); test: FLT3-ITD enzyme inhibition assay; type: biochemical
Experimental: FLT3-ITD Enzyme Inhibition Assay
The compound was dissolved in 100% DMSO at the concentration of 10 mM. The FLT3-ITD protein was purchased from Invitrogen (PV6191). 10 μL per well of 2.5×FLT3-ITD protein was added to assay plate containing the test compound, centrifuged at 1000 rpm for 1 minute, and then incubated at 25° C. for 10 minutes. Peptide 2 was purchased from GL Biochem (112394) and ATP was purchased from Promega (V9102). The two were added 15 μL per well mixture of 1.67× peptide 2 (final conc. is 3 μM) and ATP (final conc. is 97.2 μM), centrifuged at 1000 rpm for 1 minute, then incubated at 25° C. for 40 minutes. Then added 30 μL of stop buffer (100 mM HEPES pH7.5, 0.015% Brij-35, 0.2% Coating Reagent 3, 50 mM EDTA) to the assay plate and centrifuged at 1000 rpm for 1 minute. the product was determined. Based on the results, the IC50 value of the compound was calculated.

[2] = molecular target: T1, HPK1 (Homo sapiens (Human), UniProt Q92918); test: HPK1 degradation assay (western blot, human PBMC); type: cell-based; details: for Dmax: read-out: HPK1 Dmax
Experimental: Frozen human PBMC were purchased from Shanghai OribioTech and recovered with culture medium (RMPI1640) prior to use. The cells were then incubated with a variety of concentrations of compound. After incubation, the cells were collected and lysed. The protein concentration was determined by BCA protein assay kit from Thermo (23227). The HPK1 protein level was determined by western blots, using anti-human HPK1 polyclonal antibody from CST (4472S). Proteins were loaded into each well of the pre-casting gels and subjected to electrophoretic separation by SDS-PAGE. The protein resolved by SDS-PAGE were transferred to PVDF, blocked by 5% skim milk, and probed with anti-human HPK1 antibody or β-actin antibody from CST (3700S), using standard western blotting procedure.
Target sequence in this assay (Q92918 whole entry): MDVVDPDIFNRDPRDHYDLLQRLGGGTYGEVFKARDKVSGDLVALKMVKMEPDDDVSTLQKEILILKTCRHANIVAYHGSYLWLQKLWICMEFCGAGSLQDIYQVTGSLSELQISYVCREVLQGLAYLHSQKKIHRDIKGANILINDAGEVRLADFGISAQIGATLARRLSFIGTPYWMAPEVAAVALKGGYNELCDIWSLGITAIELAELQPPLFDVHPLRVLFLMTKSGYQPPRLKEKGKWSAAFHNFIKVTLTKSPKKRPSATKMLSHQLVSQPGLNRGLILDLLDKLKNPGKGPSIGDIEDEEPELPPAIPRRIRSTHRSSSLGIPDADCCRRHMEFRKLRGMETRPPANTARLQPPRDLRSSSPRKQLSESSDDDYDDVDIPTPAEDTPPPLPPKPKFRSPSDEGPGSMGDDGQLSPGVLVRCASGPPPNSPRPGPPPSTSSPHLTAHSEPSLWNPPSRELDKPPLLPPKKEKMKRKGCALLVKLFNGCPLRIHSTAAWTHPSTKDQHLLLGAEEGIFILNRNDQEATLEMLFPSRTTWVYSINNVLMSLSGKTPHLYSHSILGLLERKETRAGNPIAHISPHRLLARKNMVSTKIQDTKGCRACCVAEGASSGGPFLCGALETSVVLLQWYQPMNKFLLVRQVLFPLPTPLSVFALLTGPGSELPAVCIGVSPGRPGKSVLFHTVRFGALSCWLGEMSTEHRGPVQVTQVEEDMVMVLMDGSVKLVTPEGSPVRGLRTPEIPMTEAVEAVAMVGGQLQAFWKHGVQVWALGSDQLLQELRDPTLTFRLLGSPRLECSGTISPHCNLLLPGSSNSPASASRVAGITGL

[3] = system: FLT3; test: FLT3 degradation assay (western blot, MV-411 cells); type: cell-based, human
Experimental: (§1) MV-411 cells were cultured with medium (IMDM) prior to use. Cells were then incubated with a variety of concentrations of compound. After incubation, the cells were collected and lysed. The protein concentration was determined by BCA protein assay kit from Thermo (23227). The FLT3 protein level was determined by western blots, using anti-human FLT3 monoclonal antibody from CST (3462S). Proteins were loaded into each well of the pre-casting gels and subjected to electrophoretic separation by SDS-PAGE. The protein resolved by SDS-PAGE were transferred to PVDF, blocked by 5% skim milk, and probed with anti-human FLT3 antibody or -actin antibody from CST (3700S), using standard western blotting procedure.

[4] = molecular target: T2, Aurora A (Homo sapiens (Human), UniProt O14965); test: Aurora A degradation assay (western blot); type: cell-based; details: protein degradation, IMR32, Huh7 or HL-60 cells
Experimental: Aurora A Degradation Assay
as §1, with “IMR32” for “MV-411”, “cultured with medium (MEM), Huh7 cells were cultured with medium (DMEM) and HL-60 cells were culture” for “cultured”, “AURKA” for “FLT3”, “(14475S).” for “(3462S).”, “β-actin” for “-actin”, “(3700S) or COX IV antibody from CST (4850S),” for “(3700S),”

[5] = system: MEK 1/2; test: MEK 1/2 degradation assay (western blot); type: cell-based, human; details: protein degradation, MV-411 or IMR32 cells
Experimental: MEK 1/2 Degradation Assay
as §1, with “(IMDM) and IMR32 cells were cultured with medium (MEM)” for “(IMDM)”, “anti-human MEK 1/2 polyclonal” for “anti-human FLT3 monoclonal”, “CST (9122S).” for “CST (3462S).”, “anti-human MEK1/2” for “anti-human FLT3”, “or β-actin” for “or -actin”, “CST (3700S) and COX IV antibody from CST (4850S),” for “CST (3700S),”

[6] = molecular target: T1, HPK1; test: HPK1 enzyme inhibition assay (ADP-Glo); type: biochemical
Experimental: HPK1 Enzyme Inhibition Assay
The compound was dissolved in 100% DMSO at the concentration of 10 mM. The HPK1 protein was purchased from Signal Chem (M23-11G-10). 2.5 μL per well of 2×HPK1 protein was added to assay plate containing the test compound, centrifuged at 1500 rpm for 1 minute, and then incubated at 25° C. for 60 minutes. MBP protein was purchased from Signal Chem (M42-51N) and ATP was purchased from Promega (V9102). The two were added 2.5 μL per well mixture of 2×MBP (0.2 ug/ul) and ATP (20 μM), centrifuged at 1500 rpm for 1 minute, then incubated at 25° C. for 60 minutes. Then added 5 μL of ADP-Glo from Promega (V9102) to the assay plate and depleted the unconsumed ATP for 60 minutes. Then centrifuged at 1500 rpm for 1 minute and incubated at 25° C. for 60 minutes. Finally, 10 μL of the kinase assay reagent from Promega (V9102) was added to the assay plate to convert ADP to ATP, centrifuged at 1500 rpm for 1 minute, incubate at 25° C. for 40 minutes. After 40 minutes incubation, the […] was determined. Based on the results, the IC50 value of the compound was calculated.
Target sequence in this assay (Q92918 1-346 limits assumed): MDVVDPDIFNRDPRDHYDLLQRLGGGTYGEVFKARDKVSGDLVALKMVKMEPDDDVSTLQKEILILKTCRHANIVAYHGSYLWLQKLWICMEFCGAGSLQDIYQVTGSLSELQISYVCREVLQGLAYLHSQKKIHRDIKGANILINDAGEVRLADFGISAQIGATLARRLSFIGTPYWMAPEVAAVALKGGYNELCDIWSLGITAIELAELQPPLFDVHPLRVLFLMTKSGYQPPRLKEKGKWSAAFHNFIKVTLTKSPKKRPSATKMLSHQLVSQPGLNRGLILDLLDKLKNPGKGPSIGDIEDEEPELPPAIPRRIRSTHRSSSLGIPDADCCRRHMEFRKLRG

[7] = molecular target: T2, Aurora A; test: Aurora A enzyme inhibition assay; type: biochemical
Experimental: Aurora A Enzyme Inhibition Assay
The compound was dissolved in 100% DMSO at the concentration of 10 mM. The Aurora A protein was purchased from Carna (05-101). 10 μL per well of 2.5×Aurora A protein was added to assay plate containing the test compound, centrifuged at 1000 rpm for 1 minute, and then incubated at 25° C. for 10 minutes. Peptide 21 was purchased from GL Biochem (116370) and ATP was purchased from Promega (V9102). The two were added 15 μL per well mixture of 1.67× peptide 21 (final conc. is 3 μM) and ATP (final conc. is 14.58 μM), centrifuged at 1000 rpm for 1 minute, then incubated at 25° C. for 40 minutes. Then added 30 μL of stop buffer (100 mM HEPES pH7.5, 0.015% Brij-35, 0.2% Coating Reagent 3, 50 mM EDTA) to the assay plate and centrifuged at 1000 rpm for 1 minute. the product was determined. Based on the results, the IC50 value of the compound was calculated.

[8] = enzyme inhibition, read-out: FLT3-ITD IC50
[9] = protein degradation, human PBMC, read-out: HPK1 DC50
[10] = protein degradation, human PBMC
[11] = protein degradation, class symbol, read-out: FLT3 DC50 (nM)/Dmax (%)
[12] = class symbol, read-out: Aurora A DC50 (nM)/Dmax (%)
[13] = protein degradation, human PBMC, class symbol, read-out: HPK1 DC50 (nM)/Dmax (%)

FLT3-ITD, sequence (P36888 whole entry, looked up, change not shown): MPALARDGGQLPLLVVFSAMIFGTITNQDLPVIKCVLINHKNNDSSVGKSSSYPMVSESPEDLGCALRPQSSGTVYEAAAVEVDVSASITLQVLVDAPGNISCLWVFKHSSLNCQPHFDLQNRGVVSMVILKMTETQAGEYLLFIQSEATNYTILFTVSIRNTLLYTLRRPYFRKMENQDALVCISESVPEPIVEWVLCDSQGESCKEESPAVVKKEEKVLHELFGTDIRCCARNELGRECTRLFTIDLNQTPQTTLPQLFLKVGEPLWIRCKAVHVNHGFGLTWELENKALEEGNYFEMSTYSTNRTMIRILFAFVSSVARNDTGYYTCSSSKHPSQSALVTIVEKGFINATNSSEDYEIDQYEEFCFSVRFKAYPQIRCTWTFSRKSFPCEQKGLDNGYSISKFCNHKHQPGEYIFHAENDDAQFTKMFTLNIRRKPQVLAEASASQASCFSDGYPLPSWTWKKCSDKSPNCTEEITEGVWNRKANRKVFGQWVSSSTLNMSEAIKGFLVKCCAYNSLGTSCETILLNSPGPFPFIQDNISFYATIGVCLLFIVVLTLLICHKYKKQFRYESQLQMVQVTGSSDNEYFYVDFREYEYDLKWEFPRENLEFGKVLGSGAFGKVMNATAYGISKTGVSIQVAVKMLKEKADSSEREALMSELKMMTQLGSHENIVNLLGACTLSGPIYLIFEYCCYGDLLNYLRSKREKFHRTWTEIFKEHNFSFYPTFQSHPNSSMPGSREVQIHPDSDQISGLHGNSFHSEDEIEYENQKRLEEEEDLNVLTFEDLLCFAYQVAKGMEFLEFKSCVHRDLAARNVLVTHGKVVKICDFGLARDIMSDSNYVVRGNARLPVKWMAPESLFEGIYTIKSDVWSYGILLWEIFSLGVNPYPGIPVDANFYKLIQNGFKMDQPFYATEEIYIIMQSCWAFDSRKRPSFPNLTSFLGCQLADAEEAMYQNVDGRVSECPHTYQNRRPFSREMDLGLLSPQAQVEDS
T2 sequence (O14965 whole entry): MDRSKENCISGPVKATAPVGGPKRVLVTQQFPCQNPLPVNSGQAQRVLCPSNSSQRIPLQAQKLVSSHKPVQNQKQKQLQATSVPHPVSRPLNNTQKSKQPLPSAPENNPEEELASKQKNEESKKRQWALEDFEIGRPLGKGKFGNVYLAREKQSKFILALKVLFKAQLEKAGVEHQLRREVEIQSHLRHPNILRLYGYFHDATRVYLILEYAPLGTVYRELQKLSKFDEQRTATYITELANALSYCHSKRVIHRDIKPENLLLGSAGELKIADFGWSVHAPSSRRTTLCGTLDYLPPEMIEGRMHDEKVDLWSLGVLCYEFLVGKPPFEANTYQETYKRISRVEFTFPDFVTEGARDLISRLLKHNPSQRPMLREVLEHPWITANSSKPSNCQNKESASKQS

Compound: CCc1c[nH]c2ncc(-c3cccc(N4CCCN(CCN5CC(c6ccc7c(c6)C(=O)N(C6CCC(=O)NC6=O)C7)C5)C4=O)c3)c(Cl)c12 (centres unmarked) [Example 1]
- IC50 [1, 8]: 4 nM
- DC50 [2, 9]: 173 nM
- Dmax [2, 10]: 75%
- DC50 [3, 11]: > 10000 nM
- DC50 [4, 12]: > 10000 nM
- MEK 1/2 Dmax [5]: 20%
- DC50 ([5]; read-out: MEK 1/2 DC50): 68 nM

Compound: CCc1c[nH]c2ncc(-c3cccc(N4CCCN(CCN5CC(c6ccc7c(c6)CN(C6CCC(=O)NC6=O)C7=O)C5)C4=O)c3)c(Cl)c12 (centres unmarked) [Example 2]
- IC50 [1]: 4.7 nM
- DC50 ([2]; read-out: HPK1 DC50, protein degradation, human PBMC): 3 nM
- Dmax [2]: 80%
- DC50 ([3]; read-out: FLT3 DC50 (nM)/Dmax (%), protein degradation, class symbol): > 10000 nM
- DC50 ([4]; read-out: Aurora A DC50 (nM)/Dmax (%), class symbol): > 10000 nM
- DC50 ([5]; read-out: MEK 1/2 DC50 (nM)/Dmax (%), class symbol): > 10000 nM

Compound: CCc1c[nH]c2ncc(-c3cccc(N4CCCN(CCN5CCC(c6ccc7c(c6)C(=O)N(C6CCC(=O)NC6=O)C7=O)CC5)C4=O)c3)c(Cl)c12 (centres unmarked) [Example 3, 5-(1-(2-(3-(3-(4-chloro-3-ethyl-1H-pyrrolo [2,3-b]pyridin-5-yl)phenyl)-2-oxotetrahydropyrimidin-1 (2H)-yl)ethyl)piperidin-4-yl)-2-(2,6-dioxopiperidin-3-yl) isoindoline-1,3-dione]
- IC50 [6]: 5.8 nM
- IC50 [1, 8]: 13.6 nM
- IC50 [7]: 50.8 nM

Compound: CCc1c[nH]c2ncc(-c3cccc(N4CCCN(CCN5CCN(c6ccc7c(N8CCC(=O)NC8=O)cccc7c6)CC5)C4=O)c3)c(Cl)c12 [Example 4, 1-(6-(4-(2-(3-(3-(4-chloro-3-ethyl-1H-pyrrolo [2,3-b]pyridin-5-yl)phenyl)-2-oxotetrahydropyrimidin-1 (2H)-yl)ethyl)piperazin-1-yl)naphthalen-1-yl) dihydropyrimidine-2, 4 (1H, 3H)-dione]
- IC50 [6]: 17.1 nM
- IC50 [1, 8]: 24 nM
- IC50 [7]: 25.2 nM
- DC50 [2, 13]: > 10000 nM
- DC50 [3, 11]: > 10000 nM
- DC50 [4, 12]: > 10000 nM
- MEK 1/2 Dmax [5]: 30%
- DC50 ([5]; read-out: MEK 1/2 DC50): < 1 nM

Compound: CCc1c[nH]c2ncc(-c3cccc(N4CCCN(CCN5CC=C(c6ccc7c(c6)C(=O)N(C6CCC(=O)NC6=O)C7=O)CC5)C4=O)c3)c(Cl)c12 (centres unmarked) [Example 5, 5-(1-(2-(3-(3-(4-chloro-3-ethyl-1H-pyrrolo [2,3-b]pyridin-5-yl)phenyl)-2-oxotetrahydropyrimidin-1 (2H)-yl)ethyl)-1,2,3,6-tetrahydropyridin-4-yl)-2-(2,6-dioxopiperidin-3-yl) isoindoline-1,3-dione]
- IC50 [6]: 13.4 nM
- IC50 [1, 8]: 27.7 nM
- IC50 [7]: 21.8 nM
- DC50 [2, 13]: > 10000 nM
- DC50 [3, 11]: > 10000 nM
- DC50 [4, 12]: > 10000 nM
- MEK 1/2 Dmax [5]: 65%
- DC50 ([5]; read-out: MEK 1/2 DC50): 2.1 nM

Compound: CCc1c[nH]c2ncc(-c3cccc(N4CCCN(CCN5CC(c6ccc7c(c6)C(=O)N(C6CCC(=O)NC6=O)C7=O)C5)C4=O)c3)c(Cl)c12 (centres unmarked) [Example 6, 5-(1-(2-(3-(3-(4-chloro-3-ethyl-1H-pyrrolo [2,3-b]pyridin-5-yl)phenyl)-2-oxotetra hydropyrimidin-1 (2H)-yl)ethyl)azetidin-3-yl)-2-(2,6-dioxopiperidin-3-yl) isoindo line-1,3-dione]
- IC50 [6]: 3.1 nM
- IC50 [1, 8]: 18.4 nM
- IC50 [7]: 9.9 nM
- DC50 [2, 13]: > 10000 nM
- DC50 [3, 11]: > 10000 nM
- DC50 [4, 12]: > 10000 nM
- MEK 1/2 Dmax [5]: 32%
- DC50 ([5]; read-out: MEK 1/2 DC50): < 1 nM

Compound: CCc1c[nH]c2ncc(-c3cccc(N4CCCN(CC5CCN(c6ccc7c(c6)C(=O)N(C6CCC(=O)N(C)C6=O)C7=O)CC5)C4=O)c3)c(Cl)c12 (centres unmarked) [Example 10, 5-(4-((3-(3-(4-chloro-3-ethyl-1H-pyrrolo [2,3-b]pyridin-5-yl)phenyl)-2-oxotetrahydropyrimidin-1 (2H)-yl)methyl)piperidin-1-yl)-2-(1-methyl-2,6-dioxopiperidin-3-yl) isoindoline-1,3-dione]
- IC50 [6]: 30.7 nM
- IC50 [1, 8]: 7.4 nM
- IC50 [7]: 34.8 nM

Compound: O=C1CCC(N2Cc3cc(N4CCC(CN5CCCN(c6cccc(-c7cnc8[nH]cc(C9CC9)c8c7Cl)c6)C5=O)CC4)ccc3C2=O)C(=O)N1 (centres unmarked) [Example 12, 3-[5-(4-{[3-(3-{4-chloro-3-cyclopropyl-1H-pyrrolo [2,3-b]pyridin-3-yl}phenyl)-2-oxo-1,3-diazinan-1-yl]methyl}piperidin-1-yl)-1-oxo-3H-isoindol-2-yl]piperidine-2,6-dione]
- IC50 [6]: 34.3 nM

Compound: O=C1CCC(N2Cc3cc(N4CCC(CN5CCCN(c6cccc(-c7cnc8[nH]cc(CC(F)F)c8c7Cl)c6)C5=O)CC4)ccc3C2=O)C(=O)N1 (centres unmarked) [Example 14]
- IC50 [6]: 25.8 nM
- DC50 [2, 9]: 100 nM
- Dmax [2, 10]: 90%
- FLT3 Dmax ([3]; protein degradation): 95%
- DC50 ([3]; protein degradation, read-out: FLT3 DC50): 11 nM
- DC50 ([4]; read-out: Aurora A DC50): < 20 nM
- Dmax ([4]; read-out: Aurora A Dmax): 95%
- MEK 1/2 Dmax [5]: 90%
- DC50 ([5]; read-out: MEK 1/2 DC50): < 100 nM
